According to patent US10150760B2, “Compounds for use in preparing heterocyclic triazole agonists of the APJ receptor” (AMGEN INC., priority 2016, dated 2018):

molecular target: human APJ receptor (Homo sapiens (Human), UniProt P35414); test: [35S]GTPγS binding assay on membranes from CHO cells stably expressing human APJ receptor; format: biochemical; settings: read-out: Activity hAPJ SPA EC50 IP
Procedure: The human APJ receptor was cloned by polymerase chain reaction and the gene encoding the receptor was subcloned in pFLAG-CMV™-3 expression vector (Sigma, Saint Louis, Mo. USA) in-house at Amgen. A GTPγS binding assay was performed on membranes prepared from CHO cells stably expressing human APJ receptor. The optimum experimental conditions for the concentrations of GDP, MgCl2, and NaCl in the assay buffer were initially determined. The assay was performed in assay buffer [20 mM HEPES, pH 7.5, 5 mM MgCl2, and 0.1% (w/v) BSA with 200 mM NaCl, 3 μM GDP] and membranes expressing human APJ receptor/well along with WGA PS beads. The reaction was initiated by addition of 0.2 nM [^35S]GTPγS (Perkin Elmer Life and Analytical Sciences, Waltham USA) in the absence or presence of various ligands and incubated at RT for 90 min. Nonspecific binding was determined in the presence of 100 μM GTPγS and was always less than 0.2% of total binding. All the results presented are means of several independent experiments and analyzed by non-linear regression methods using commercially available program Prism (GraphPad, San Diego, Calif.) to obtain EC50 detailed in Table 38.

human APJ receptor, sequence (P35414 whole entry): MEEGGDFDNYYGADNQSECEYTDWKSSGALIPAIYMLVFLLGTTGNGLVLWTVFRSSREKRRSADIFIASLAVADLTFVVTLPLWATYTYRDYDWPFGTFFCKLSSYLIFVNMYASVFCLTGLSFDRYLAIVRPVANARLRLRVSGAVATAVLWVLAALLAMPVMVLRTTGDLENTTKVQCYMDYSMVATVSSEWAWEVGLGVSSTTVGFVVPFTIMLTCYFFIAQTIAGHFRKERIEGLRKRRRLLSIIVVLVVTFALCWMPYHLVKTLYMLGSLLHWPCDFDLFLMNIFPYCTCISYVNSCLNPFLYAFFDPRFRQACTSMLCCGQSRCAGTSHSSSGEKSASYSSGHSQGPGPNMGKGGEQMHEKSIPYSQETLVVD

Question: How did the EC50 turn out when `COc1cccc(OC)c1-n1c(NS(=O)(=O)[C@@H](C)[C@H](OC)c2ncc(Cl)cn2)nnc1[C@H]1CCCO1` (single isomer, unassigned) [Example 52.0, (1R,2S)-1-(5-chloropyrimidin-2-yl)-N-(4-(2,6-dimethoxyphenyl)-5-((R)-tetrahydrofuran-2-yl)-4H-1,2,4-triazol-3-yl)-1-methoxypropane-2-sulfonamide or (1R,2S)-1-(5-chloropyrimidin-2-yl)-N-(4-(2,6-dimethoxyphenyl)-5-((S)-tetrahydrofuran-2-yl)-4H-1,2,4-triazol-3-yl)-1-methoxypropane-2-sulfonamide] was run?
Answer: 20 nM

Question: For `COc1cccc(OC)c1-n1c(NS(=O)(=O)[C@@H](C)[C@H](C)c2ncc(C)cn2)nnc1[C@H]1CCOC1` (single isomer, unassigned) [Example 54.0, (2S,3R)-N-(4-(2,6-dimethoxyphenyl)-5-((R)-tetrahydrofuran-3-yl)-4H-1,2,4-triazol-3-yl)-3-(5-methylpyrimidin-2-yl)butane-2-sulfonamide or (2S,3R)-N-(4-(2,6-dimethoxyphenyl)-5-((S)-tetrahydrofuran-3-yl)-4H-1,2,4-triazol-3-yl)-3-(5-methylpyrimidin-2-yl)butane-2-sulfonamide], which EC50 is on record?
Answer: 37 nM

Question: For `COc1cccc(OC)c1-n1c(NS(=O)(=O)[C@@H](C)[C@H](C)c2ncc(C)cn2)nnc1[C@H]1CCOC1` (single isomer, unassigned) [Example 55.0, (2S,3R)-N-(4-(2,6-dimethoxyphenyl)-5-((R)-tetrahydrofuran-3-yl)-4H-1,2,4-triazol-3-yl)-3-(5-methylpyrimidin-2-yl)butane-2-sulfonamide or (2S,3R)-N-(4-(2,6-dimethoxyphenyl)-5-((S)-tetrahydrofuran-3-yl)-4H-1,2,4-triazol-3-yl)-3-(5-methylpyrimidin-2-yl)butane-2-sulfonamide], which EC50 is on record?
Answer: 66 nM

Question: Which EC50 does the source give for `COc1cccc(OC)c1-n1c(NS(=O)(=O)[C@@H](C)[C@H](C)c2ncc(C)cn2)nnc1[C@H]1CCCOC1` (single isomer, unassigned) [Example 58.0, (2S,3R)-N-(4-(2,6-dimethoxyphenyl)-5-((R)-tetrahydro-2H-pyran-3-yl)-4H-1,2,4-triazol-3-yl)-3-(5-methylpyrimidin-2-yl)butane-2-sulfonamide or (2S,3R)-N-(4-(2,6-dimethoxyphenyl)-5-((S)-tetrahydro-2H-pyran-3-yl)-4H-1,2,4-triazol-3-yl)-3-(5-methylpyrimidin-2-yl)butane-2-sulfonamide] here?
Answer: 120 nM

Question: Which EC50 does the source give for `COc1cccc(OC)c1-n1c(NS(=O)(=O)[C@@H](C)[C@H](C)c2ncc(C)cn2)nnc1[C@H]1CCCOC1` (single isomer, unassigned) [Example 59.0, (2S,3R)-N-(4-(2,6-dimethoxyphenyl)-5-((R)-tetrahydro-2H-pyran-3-yl)-4H-1,2,4-triazol-3-yl)-3-(5-methylpyrimidin-2-yl)butane-2-sulfonamide or (2S,3R)-N-(4-(2,6-dimethoxyphenyl)-5-((S)-tetrahydro-2H-pyran-3-yl)-4H-1,2,4-triazol-3-yl)-3-(5-methylpyrimidin-2-yl)butane-2-sulfonamide] here?
Answer: 16 nM

Question: How did the EC50 turn out when `COc1cccc(OC)c1-n1c(NS(=O)(=O)[C@@H](C)[C@H](C)c2ncc(Cl)cn2)nnc1[C@H]1CCCOC1` (single isomer, unassigned) [Example 62.0, (2S,3R)-3-(5-chloropyrimidin-2-yl)-N-(4-(2,6-dimethoxyphenyl)-5-((R)-tetrahydro-2H-pyran-3-yl)-4H-1,2,4-triazol-3-yl)butane-2-sulfonamide or (2S,3R)-3-(5-chloropyrimidin-2-yl)-N-(4-(2,6-dimethoxyphenyl)-5-((S)-tetrahydro-2H-pyran-3-yl)-4H-1,2,4-triazol-3-yl)butane-2-sulfonamide] was run?
Answer: 26 nM

Question: For `COc1cccc(OC)c1-n1c(NS(=O)(=O)[C@@H](C)[C@H](OC)c2ncc(Cl)cn2)nnc1[C@H]1CCCOC1` (single isomer, unassigned) [Example 64.0, (1R,2S)-1-(5-chloropyrimidin-2-yl)-N-(4-(2,6-dimethoxyphenyl)-5-((R)-tetrahydro-2H-pyran-3-yl)-4H-1,2,4-triazol-3-yl)-1-methoxypropane-2-sulfonamide or (1R,2S)-1-(5-chloropyrimidin-2-yl)-N-(4-(2,6-dimethoxyphenyl)-5-((S)-tetrahydro-2H-pyran-3-yl)-4H-1,2,4-triazol-3-yl)-1-methoxypropane-2-sulfonamide], which EC50 is on record?
Answer: 29 nM

Question: `COc1cccc(OC)c1-n1c(NS(=O)(=O)[C@@H](C)[C@@H](OC(C)C)c2cnc(C)cn2)nnc1[C@H]1CCCO1` (single isomer, unassigned) [Example 66.0] was tested. Which EC50 did it give?
Answer: 6.9 nM

Question: With `COc1cccc(OC)c1-n1c(NS(=O)(=O)[C@@H](C)[C@@H](OC(C)C)c2cnc(C)cn2)nnc1[C@H]1CCCO1` (single isomer, unassigned) [Example 67.0] as the compound, how does the EC50 read?
Answer: 180 nM

Question: With `COc1cccc(OC)c1-n1c(NS(=O)(=O)[C@@H](C)[C@H](C)c2ncc(Cl)cn2)nnc1[C@H]1OCC[C@H]1C` (single isomer, unassigned) [Example 68.0, (2S,3R)-3-(5-chloropyrimidin-2-yl)-N-(4-(2,6-dimethoxyphenyl)-5-((2S,3R)-3-methyltetrahydrofuran-2-yl)-4H-1,2,4-triazol-3-yl)butane-2-sulfonamide or (2S,3R)-3-(5-chloropyrimidin-2-yl)-N-(4-(2,6-dimethoxyphenyl)-5-((2R,3S)-3-methyltetrahydrofuran-2-yl)-4H-1,2,4-triazol-3-yl)butane-2-sulfonamide] as the compound, how does the EC50 read?
Answer: 14 nM

Question: `COc1ncnc(OC)c1-n1c(NS(=O)(=O)[C@@H](C)[C@H](C)c2ncc(C)cn2)nnc1[C@H]1CCCO1` (single isomer, unassigned) [Example 69.0, (2S,3R)-N-(4-(4,6-dimethoxypyrimidin-5-yl)-5-((S)-tetrahydrofuran-2-yl)-4H-1,2,4-triazol-3-yl)-3-(5-methylpyrimidin-2-yl)butane-2-sulfonamide or (2S,3R)-N-(4-(4,6-dimethoxypyrimidin-5-yl)-5-((R)-tetrahydrofuran-2-yl)-4H-1,2,4-triazol-3-yl)-3-(5-methylpyrimidin-2-yl)butane-2-sulfonamide] was tested. Which EC50 did it give?
Answer: 82 nM

Question: `COc1ncnc(OC)c1-n1c(NS(=O)(=O)[C@@H](C)[C@H](C)c2ncc(C)cn2)nnc1[C@H]1CCCO1` (single isomer, unassigned) [Example 70.0, (2S,3R)-N-(4-(4,6-dimethoxypyrimidin-5-yl)-5-((S)-tetrahydrofuran-2-yl)-4H-1,2,4-triazol-3-yl)-3-(5-methylpyrimidin-2-yl)butane-2-sulfonamide or (2S,3R)-N-(4-(4,6-dimethoxypyrimidin-5-yl)-5-((R)-tetrahydrofuran-2-yl)-4H-1,2,4-triazol-3-yl)-3-(5-methylpyrimidin-2-yl)butane-2-sulfonamide] was tested. Which EC50 did it give?
Answer: 15 nM

Question: `COc1cccc(OC)c1-n1c(NS(=O)(=O)[C@@H](C)[C@H](C)c2ncc(C)cn2)nnc1[C@H]1OCC[C@H]1C` (single isomer, unassigned) [Example 71.0, (2S,3R)-N-(4-(2,6-dimethoxyphenyl)-5-((2R,3S)-3-methyltetrahydrofuran-2-yl)-4H-1,2,4-triazol-3-yl)-3-(5-methylpyrimidin-2-yl)butane-2-sulfonamide or (2S,3R)-N-(4-(2,6-dimethoxyphenyl)-5-((2S,3R)-3-methyltetrahydrofuran-2-yl)-4H-1,2,4-triazol-3-yl)-3-(5-methylpyrimidin-2-yl)butane-2-sulfonamide] was tested. Which EC50 did it give?
Answer: 450 nM

Question: For `COc1cccc(OC)c1-n1c(NS(=O)(=O)[C@@H](C)[C@H](C)c2ncc(Cl)cn2)nnc1[C@H]1OCC[C@H]1C` (single isomer, unassigned) [Example 75.0, (2S,3R)-3-(5-chloropyrimidin-2-yl)-N-(4-(2,6-dimethoxyphenyl)-5-((2R,3S)-3-methyltetrahydrofuran-2-yl)-4H-1,2,4-triazol-3-yl)butane-2-sulfonamide or (2S,3R)-3-(5-chloropyrimidin-2-yl)-N-(4-(2,6-dimethoxyphenyl)-5-((2S,3R)-3-methyltetrahydrofuran-2-yl)-4H-1,2,4-triazol-3-yl)butane-2-sulfonamide], which EC50 is on record?
Answer: 210 nM

Question: How did the EC50 turn out when `COc1cccc(OC)c1-n1c(NS(=O)(=O)[C@@H](C)[C@H](C)c2ncc(Cl)cn2)nnc1[C@H]1OCC[C@H]1C` (single isomer, unassigned) [Example 76.0, (2S,3R)-3-(5-chloropyrimidin-2-yl)-N-(4-(2,6-dimethoxyphenyl)-5-((2R,3S)-3-methyltetrahydrofuran-2-yl)-4H-1,2,4-triazol-3-yl)butane-2-sulfonamide or (2S,3R)-3-(5-chloropyrimidin-2-yl)-N-(4-(2,6-dimethoxyphenyl)-5-((2S,3R)-3-methyltetrahydrofuran-2-yl)-4H-1,2,4-triazol-3-yl)butane-2-sulfonamide] was run?
Answer: 1.4 nM

Question: `COc1ncnc(OC)c1-n1c(NS(=O)(=O)[C@@H](C)[C@H](OC)c2ncc(Cl)cn2)nnc1[C@H]1CCCO1` (single isomer, unassigned) [Example 79.0, (1R,2S)-1-(5-chloropyrimidin-2-yl)-N-(4-(4,6-dimethoxypyrimidin-5-yl)-5-((S)-tetrahydrofuran-2-yl)-4H-1,2,4-triazol-3-yl)-1-methoxypropane-2-sulfonamide or (1R,2S)-1-(5-chloropyrimidin-2-yl)-N-(4-(4,6-dimethoxypyrimidin-5-yl)-5-((R)-tetrahydrofuran-2-yl)-4H-1,2,4-triazol-3-yl)-1-methoxypropane-2-sulfonamide] was tested. Which EC50 did it give?
Answer: 110 nM
